Measured values from ChEMBL document CHEMBL1909046, “DrugMatrix in vitro pharmacology data”.

Experiments:
[1] = DRUGMATRIX: Purinergic P2X radioligand binding (ligand: [3H] alpha, beta-Methylene-ATP); type: cell membranes, Oryctolagus cuniculus, New Zealand albino, Urinary bladder, Membrane; conditions: Not Active = under 50% inhibition at 10 µM
[2] = DRUGMATRIX: Glutamate, NMDA, Agonism radioligand binding (ligand: [3H] CGP-39653); type: cell membranes, Rattus norvegicus, Wistar, Cerebral cortex, Membrane; conditions: Not Active = under 50% inhibition at 10 µM
[3] = DRUGMATRIX: Interleukin IL-1 radioligand binding (ligand: [125I] interleukin 1beta); type: cell membranes, Membrane; conditions: nih3t3; Not Active = under 50% inhibition at 10 µM
[4] = target: T1, Cysteinyl leukotriene receptor 1 (Homo sapiens, UniProt Q9Y271); type: cell membranes, CHO-K1, Membrane; conditions: cho-k1; also: in other assays of this panel Not Active means under 50% inhibition at 10 µM
T1 sequence (Q9Y271 whole entry): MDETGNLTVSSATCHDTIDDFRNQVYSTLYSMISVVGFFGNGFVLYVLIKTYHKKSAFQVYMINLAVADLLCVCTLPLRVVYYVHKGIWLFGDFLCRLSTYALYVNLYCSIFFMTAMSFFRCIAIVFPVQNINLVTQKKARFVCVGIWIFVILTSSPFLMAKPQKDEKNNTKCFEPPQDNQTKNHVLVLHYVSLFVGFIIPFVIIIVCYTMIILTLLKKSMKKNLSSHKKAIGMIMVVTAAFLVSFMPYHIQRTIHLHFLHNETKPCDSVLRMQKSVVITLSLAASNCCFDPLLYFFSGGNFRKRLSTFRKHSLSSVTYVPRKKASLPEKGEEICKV

[5] = target: Mu-type opioid receptor (Homo sapiens, UniProt P35372); assay: DRUGMATRIX: Opiate mu (OP3, MOP) radioligand binding (ligand: [3H] Diprenorphine); type: cell membranes, CHO-K1, Membrane; conditions: cho-k1; Not Active = under 50% inhibition at 10 µM
Mu-type opioid receptor, sequence (P35372 whole entry): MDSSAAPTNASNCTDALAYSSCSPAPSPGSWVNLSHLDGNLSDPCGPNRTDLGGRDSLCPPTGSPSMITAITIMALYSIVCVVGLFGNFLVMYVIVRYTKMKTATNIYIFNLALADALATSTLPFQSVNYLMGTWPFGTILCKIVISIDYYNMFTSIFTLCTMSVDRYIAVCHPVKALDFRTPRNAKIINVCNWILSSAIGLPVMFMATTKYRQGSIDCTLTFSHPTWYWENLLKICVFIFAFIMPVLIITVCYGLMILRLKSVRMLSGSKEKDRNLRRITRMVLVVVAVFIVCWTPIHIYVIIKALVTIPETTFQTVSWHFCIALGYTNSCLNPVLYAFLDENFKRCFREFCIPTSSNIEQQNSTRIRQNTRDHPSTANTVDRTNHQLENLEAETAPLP

[6] = target: T2, Angiotensin-converting enzyme (Oryctolagus cuniculus, UniProt P12822); assay: biochemical; type: tissue-based, Lung;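 also: enzymatic inhibition of angiotensin-converting enzyme measured with FAPGG as the substrate; in other assays of this panel Not Active means under 50% inhibition at 10 µM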
T2 sequence (P12822 whole entry): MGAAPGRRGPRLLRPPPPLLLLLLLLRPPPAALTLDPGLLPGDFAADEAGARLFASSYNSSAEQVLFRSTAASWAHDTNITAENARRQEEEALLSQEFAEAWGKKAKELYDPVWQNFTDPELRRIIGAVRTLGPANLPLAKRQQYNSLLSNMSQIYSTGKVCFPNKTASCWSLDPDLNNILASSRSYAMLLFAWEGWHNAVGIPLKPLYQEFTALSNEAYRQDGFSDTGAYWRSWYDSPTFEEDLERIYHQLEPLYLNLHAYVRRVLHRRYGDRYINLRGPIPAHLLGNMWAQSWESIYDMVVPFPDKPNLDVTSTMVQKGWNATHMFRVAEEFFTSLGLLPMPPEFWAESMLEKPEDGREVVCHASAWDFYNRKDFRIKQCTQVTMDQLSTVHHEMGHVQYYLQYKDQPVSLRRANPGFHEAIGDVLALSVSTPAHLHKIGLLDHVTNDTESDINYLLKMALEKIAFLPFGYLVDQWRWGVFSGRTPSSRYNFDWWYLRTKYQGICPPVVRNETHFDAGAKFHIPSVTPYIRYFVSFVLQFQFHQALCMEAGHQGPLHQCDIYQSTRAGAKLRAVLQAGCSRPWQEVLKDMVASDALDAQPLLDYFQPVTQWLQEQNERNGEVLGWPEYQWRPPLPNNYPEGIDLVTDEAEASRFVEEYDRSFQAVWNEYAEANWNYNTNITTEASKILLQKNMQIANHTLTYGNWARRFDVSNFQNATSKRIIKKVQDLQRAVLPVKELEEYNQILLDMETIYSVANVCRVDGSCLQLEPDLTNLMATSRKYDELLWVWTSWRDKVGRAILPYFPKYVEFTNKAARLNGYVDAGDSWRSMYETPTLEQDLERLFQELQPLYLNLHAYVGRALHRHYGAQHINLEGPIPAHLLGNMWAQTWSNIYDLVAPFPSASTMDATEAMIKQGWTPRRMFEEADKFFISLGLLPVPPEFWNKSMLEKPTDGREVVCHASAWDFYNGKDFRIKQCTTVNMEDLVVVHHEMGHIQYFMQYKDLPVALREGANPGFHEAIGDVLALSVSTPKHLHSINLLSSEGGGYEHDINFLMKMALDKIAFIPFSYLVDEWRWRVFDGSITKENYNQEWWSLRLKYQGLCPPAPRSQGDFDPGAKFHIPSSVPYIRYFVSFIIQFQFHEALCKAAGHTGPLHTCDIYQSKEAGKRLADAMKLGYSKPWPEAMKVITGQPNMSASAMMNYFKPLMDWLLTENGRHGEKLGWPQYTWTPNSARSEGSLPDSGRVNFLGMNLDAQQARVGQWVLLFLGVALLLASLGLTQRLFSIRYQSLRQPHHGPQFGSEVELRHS

[7] = target: T3, Alpha-1A adrenergic receptor (Rattus norvegicus, UniProt P43140); assay: DRUGMATRIX: Alpha-1A adrenergic receptor radioligand binding (ligand: prazosin); type: cell membranes, Wistar, Submaxillary gland, Membrane; conditions: Not Active = under 50% inhibition at 10 µM
T3 sequence (P43140 whole entry): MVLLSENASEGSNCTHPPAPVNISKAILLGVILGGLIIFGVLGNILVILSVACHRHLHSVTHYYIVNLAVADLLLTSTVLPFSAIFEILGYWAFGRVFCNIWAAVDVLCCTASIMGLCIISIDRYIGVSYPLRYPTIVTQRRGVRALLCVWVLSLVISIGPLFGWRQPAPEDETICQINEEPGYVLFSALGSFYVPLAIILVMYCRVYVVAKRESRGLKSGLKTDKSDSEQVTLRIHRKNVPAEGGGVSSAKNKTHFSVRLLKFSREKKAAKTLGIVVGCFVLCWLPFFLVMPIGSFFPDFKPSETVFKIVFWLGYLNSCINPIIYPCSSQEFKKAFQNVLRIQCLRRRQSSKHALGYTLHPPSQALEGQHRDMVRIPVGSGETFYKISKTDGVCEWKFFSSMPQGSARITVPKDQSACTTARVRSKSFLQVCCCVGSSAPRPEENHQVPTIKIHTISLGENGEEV

[8] = target: Sodium-dependent dopamine transporter (Homo sapiens, UniProt Q01959); assay: DRUGMATRIX: Dopamine Transporter radioligand binding (ligand: [125I] RTI-55); type: cell membranes, CHO-K1, Membrane; conditions: cho-k1; Not Active = under 50% inhibition at 10 µM
Sodium-dependent dopamine transporter, sequence (Q01959 whole entry): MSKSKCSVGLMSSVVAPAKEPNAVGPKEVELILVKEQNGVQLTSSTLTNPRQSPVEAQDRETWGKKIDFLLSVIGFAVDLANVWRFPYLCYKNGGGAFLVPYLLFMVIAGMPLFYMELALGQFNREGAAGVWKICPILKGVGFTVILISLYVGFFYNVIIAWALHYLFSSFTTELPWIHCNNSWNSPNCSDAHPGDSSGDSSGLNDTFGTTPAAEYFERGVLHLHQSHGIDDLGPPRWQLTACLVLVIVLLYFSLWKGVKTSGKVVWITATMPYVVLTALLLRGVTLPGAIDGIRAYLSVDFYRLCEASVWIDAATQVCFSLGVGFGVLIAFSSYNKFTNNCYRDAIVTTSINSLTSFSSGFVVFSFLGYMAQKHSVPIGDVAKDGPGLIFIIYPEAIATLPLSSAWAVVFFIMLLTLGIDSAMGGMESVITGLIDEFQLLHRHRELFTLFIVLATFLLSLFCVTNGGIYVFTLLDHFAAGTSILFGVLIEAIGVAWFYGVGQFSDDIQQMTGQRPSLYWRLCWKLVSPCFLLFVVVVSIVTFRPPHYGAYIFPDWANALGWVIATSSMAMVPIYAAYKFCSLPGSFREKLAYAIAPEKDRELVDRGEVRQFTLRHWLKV

[9] = target: Voltage-gated inwardly rectifying potassium channel KCNH2 (Homo sapiens, UniProt Q12809); conditions: hek293; also: in other assays of this panel Not Active means under 50% inhibition at 10 µM
Voltage-gated inwardly rectifying potassium channel KCNH2, sequence (Q12809 whole entry): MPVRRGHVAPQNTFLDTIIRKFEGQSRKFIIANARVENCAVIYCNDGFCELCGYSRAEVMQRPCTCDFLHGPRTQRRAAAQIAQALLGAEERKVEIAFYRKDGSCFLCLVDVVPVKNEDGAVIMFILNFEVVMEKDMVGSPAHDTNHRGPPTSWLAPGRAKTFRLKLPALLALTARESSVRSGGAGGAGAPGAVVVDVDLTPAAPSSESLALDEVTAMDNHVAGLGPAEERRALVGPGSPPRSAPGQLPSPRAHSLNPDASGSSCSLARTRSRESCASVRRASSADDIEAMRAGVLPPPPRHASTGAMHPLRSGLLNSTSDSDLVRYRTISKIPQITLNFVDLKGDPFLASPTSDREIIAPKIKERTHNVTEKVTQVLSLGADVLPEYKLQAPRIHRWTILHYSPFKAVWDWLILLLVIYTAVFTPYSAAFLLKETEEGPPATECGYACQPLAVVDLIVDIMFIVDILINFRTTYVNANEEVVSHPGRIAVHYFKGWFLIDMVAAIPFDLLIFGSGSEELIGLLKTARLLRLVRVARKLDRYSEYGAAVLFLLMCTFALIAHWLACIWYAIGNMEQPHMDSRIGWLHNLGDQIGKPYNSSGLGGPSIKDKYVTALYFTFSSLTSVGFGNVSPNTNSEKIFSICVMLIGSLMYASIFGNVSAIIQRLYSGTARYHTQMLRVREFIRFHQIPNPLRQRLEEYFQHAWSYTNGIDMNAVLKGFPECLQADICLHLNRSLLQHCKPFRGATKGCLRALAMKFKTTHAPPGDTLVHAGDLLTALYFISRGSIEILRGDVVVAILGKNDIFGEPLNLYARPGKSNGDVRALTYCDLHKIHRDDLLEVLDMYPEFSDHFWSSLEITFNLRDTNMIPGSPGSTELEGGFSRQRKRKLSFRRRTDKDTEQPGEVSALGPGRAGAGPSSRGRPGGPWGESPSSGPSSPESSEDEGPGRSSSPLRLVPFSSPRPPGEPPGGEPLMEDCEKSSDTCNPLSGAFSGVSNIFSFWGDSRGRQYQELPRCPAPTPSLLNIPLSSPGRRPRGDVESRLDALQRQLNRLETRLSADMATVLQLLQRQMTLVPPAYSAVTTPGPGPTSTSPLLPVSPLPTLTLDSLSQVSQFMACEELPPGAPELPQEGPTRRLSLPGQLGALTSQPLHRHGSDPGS

[10] = DRUGMATRIX: Glutamate, NMDA, Phencyclidine radioligand binding (ligand: [3H] TCP); type: cell membranes, Rattus norvegicus, Wistar, Cerebral cortex, Membrane; conditions: Not Active = under 50% inhibition at 10 µM
[11] = target: Cytochrome P450 3A4 (Homo sapiens, UniProt P08684); conditions: bti-tn-5b1-4; also: in other assays of this panel Not Active means under 50% inhibition at 10 µM
Cytochrome P450 3A4, sequence (P08684 whole entry): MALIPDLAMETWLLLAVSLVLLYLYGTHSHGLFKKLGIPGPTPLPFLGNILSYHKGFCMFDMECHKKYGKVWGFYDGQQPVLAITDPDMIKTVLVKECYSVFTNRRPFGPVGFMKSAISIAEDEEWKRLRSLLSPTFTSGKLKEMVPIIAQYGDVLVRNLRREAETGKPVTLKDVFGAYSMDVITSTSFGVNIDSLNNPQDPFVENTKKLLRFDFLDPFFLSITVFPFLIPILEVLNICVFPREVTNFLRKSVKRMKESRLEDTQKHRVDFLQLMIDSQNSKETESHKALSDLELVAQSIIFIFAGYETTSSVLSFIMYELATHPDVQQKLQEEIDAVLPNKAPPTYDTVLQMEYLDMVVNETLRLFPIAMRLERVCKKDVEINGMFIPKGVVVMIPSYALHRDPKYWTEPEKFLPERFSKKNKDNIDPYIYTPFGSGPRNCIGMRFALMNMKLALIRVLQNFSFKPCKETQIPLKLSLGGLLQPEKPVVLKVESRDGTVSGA

[12] = DRUGMATRIX: beta-Lactamase enzyme inhibition (substrate: Nitrocefin); set-up: species or system Bacillus cereus; conditions: Not Active = under 50% inhibition at 10 µM
[13] = DRUGMATRIX: Potassium Channel [KATP] radioligand binding (ligand: [3H] Glyburide); type: cell membranes, Membrane; conditions: hit-t15; Not Active = under 50% inhibition at 10 µM

CCOC(=O)OC(C)OC1=C(C(=O)Nc2ccccn2)N(C)S(=O)(=O)c2ccccc21 (configuration not stated) [AMPIROXICAM]
Not Active: IC50 [1] | Ki [1] | IC50 [2] | Ki [2] | IC50 [3] | Ki [3] | IC50 [4] | IC50 [5] | IC50 [6] | IC50 [7] | IC50 [8] | IC50 [9] | Ki [9] | IC50 [10] | Ki [10] | IC50 [11] | Ki [11] | IC50 [12] | Ki [12] | IC50 [13] | Ki [13]

C[C@]12CCC(=O)C=C1CC[C@@H]1[C@@H]2C(=O)C[C@@]2(C)[C@H]1CC[C@]2(O)C(=O)CO [CORTISONE]
Not Active: IC50 [1] | Ki [1] | IC50 [2] | Ki [2] | IC50 [3] | Ki [3] | IC50 [4] | IC50 [5] | IC50 [6] | IC50 [7] | IC50 [8] | IC50 [9] | Ki [9] | IC50 [10] | Ki [10] | IC50 [11] | Ki [11] | IC50 [12] | Ki [12] | IC50 [13] | Ki [13]

CCc1ccc(C(=O)C(C)CN2CCCCC2)cc1 (configuration not stated) [EPERISONE]
Not Active: IC50 [1] | Ki [1] | IC50 [2] | Ki [2] | IC50 [3] | Ki [3] | IC50 [4] | IC50 [5] | IC50 [6] | IC50 [7] | IC50 [8] | IC50 [9] | Ki [9] | IC50 [10] | Ki [10] | IC50 [11] | Ki [11] | IC50 [12] | Ki [12] | IC50 [13] | Ki [13]

CC(C)n1c(/C=C/C(O)CC(O)CC(=O)O)c(-c2ccc(F)cc2)c2ccccc21 (configuration not stated) [FLUVASTATIN]
Not Active: IC50 [1] | Ki [1] | IC50 [2] | Ki [2] | IC50 [3] | Ki [3] | IC50 [4] | IC50 [5] | IC50 [6] | IC50 [7] | IC50 [8] | IC50 [9] | Ki [9] | IC50 [10] | Ki [10] | IC50 [11] | Ki [11] | IC50 [12] | Ki [12] | IC50 [13] | Ki [13]

CN(C)[C@@H]1C(O)=C(C(N)=O)C(=O)[C@@]2(O)C(O)=C3C(=O)c4c(O)cccc4[C@@](C)(O)[C@H]3[C@H](O)[C@@H]12 [OXYTETRACYCLINE]
Not Active: IC50 [1] | Ki [1] | IC50 [2] | Ki [2] | IC50 [3] | Ki [3] | IC50 [4] | IC50 [5] | IC50 [6] | IC50 [7] | IC50 [8] | IC50 [9] | Ki [9] | IC50 [10] | Ki [10] | IC50 [11] | Ki [11] | IC50 [12] | Ki [12] | IC50 [13] | Ki [13]

O=C1CN=C(c2ccccc2)c2cc([N+](=O)[O-])ccc2N1 [NITRAZEPAM]
Not Active: IC50 [1] | Ki [1] | IC50 [2] | Ki [2] | IC50 [3] | Ki [3] | IC50 [4] | IC50 [5] | IC50 [6] | IC50 [7] | IC50 [8] | IC50 [9] | Ki [9] | IC50 [10] | Ki [10] | IC50 [11] | Ki [11] | IC50 [12] | Ki [12] | IC50 [13] | Ki [13]

CC(=O)CCCCn1c(=O)c2c(ncn2C)n(C)c1=O [PENTOXIFYLLINE]
Not Active: IC50 [1] | Ki [1] | IC50 [2] | Ki [2] | IC50 [3] | Ki [3] | IC50 [4] | IC50 [5] | IC50 [6] | IC50 [7] | IC50 [8] | IC50 [9] | Ki [9] | IC50 [10] | Ki [10] | IC50 [11] | Ki [11] | IC50 [12] | Ki [12] | IC50 [13] | Ki [13]
